Measured values taken from PubChem BioAssay (NCI).
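Values below derive from 48-hour exposures of cells grown in 96-well plates, with endpoints linearly interpolated between the two concentrations bracketing the appropriate inhibition level. TGI is the concentration that stops growth completely.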

Legend:
Assay in all cases: NCI tumour cell line growth inhibition, 48 h
[1] = tested on: 786-0 renal
[2] = tested on: A498 renal
[3] = tested on: A549 NSCLC
[4] = tested on: ACHN renal
[5] = tested on: CAKI-1 renal
[6] = tested on: CCRF-CEM leukemia
[7] = tested on: COLO 205 colon
[8] = tested on: DLD-1 colon
[9] = tested on: DMS 114 small cell lung
[10] = tested on: DMS 273 small cell lung
[11] = tested on: EKVX NSCLC
[12] = tested on: HCC-2998 colon
[13] = tested on: HCT-116 colon
[14] = tested on: HCT-15 colon
[15] = tested on: HL-60(TB) leukemia
[16] = tested on: HOP-18 NSCLC
[17] = tested on: HOP-62 NSCLC
[18] = tested on: HOP-92 NSCLC
[19] = tested on: HT29 colon
[20] = tested on: IGROV1 ovarian
[21] = tested on: K-562 leukemia
[22] = tested on: KM12 colon
[23] = tested on: KM20L2 colon
[24] = tested on: LOX IMVI melanoma
[25] = tested on: LXFL 529 NSCLC
[26] = tested on: M14 melanoma
[27] = tested on: MALME-3M melanoma
[28] = tested on: MOLT-4 leukemia
[29] = tested on: NCI-H226 lung
[30] = tested on: NCI-H23 lung
[31] = tested on: NCI-H460 lung
[32] = tested on: NCI-H522 lung
[33] = tested on: OVCAR-3 ovarian
[34] = tested on: OVCAR-4 ovarian
[35] = tested on: OVCAR-5 ovarian
[36] = tested on: OVCAR-8 ovarian
[37] = tested on: RPMI-8226 leukemia
[38] = tested on: RXF 393 renal
[39] = tested on: RXF-631 renal
[40] = tested on: SF-268 CNS
[41] = tested on: SF-295 CNS
[42] = tested on: SF-539 CNS
[43] = tested on: SK-MEL-28 melanoma
[44] = tested on: SK-MEL-5 melanoma
[45] = tested on: SK-OV-3 ovarian
[46] = tested on: SN12C renal
[47] = tested on: SNB-19 CNS
[48] = tested on: SNB-75 CNS
[49] = tested on: SNB-78 CNS
[50] = tested on: SR leukemia
[51] = tested on: SW-620 colon
[52] = tested on: TK-10 renal
[53] = tested on: U251 CNS
[54] = tested on: UACC-257 melanoma
[55] = tested on: UACC-62 melanoma
[56] = tested on: UO-31 renal
[57] = tested on: XF 498 CNS
[58] = tested on: M19-MEL melanoma
[59] = tested on: SK-MEL-2 melanoma

Measured: TGI

Cc1ccc(C(=O)O)cc1NC(=O)c1cc(/C=C/c2ccccc2)[nH]c(=S)n1
> 48.8 µM: [51]
> 60.7 µM: [14]
> 69.7 µM: [37]
> 77.1 µM: [8]
> 53 µM: [13]
not listed: [58] | [59]
> 100 µM: all other assays above

Cc1nc2ccccn2c1N=Nc1ccc(C(=O)NN)cc1
60.1 µM: [38]
40.8 µM: [28]
30.6 µM: [6]
69.1 µM: [44]
89.7 µM: [20]
not listed: [10] | [13] | [22] | [31] | [32] | [48] | [50] | [59]
> 100 µM: all other assays above

CCOC(=O)C12CCCC1(O)N(NC(N)=O)C(C)=C2C(=O)OC (stereo not drawn)
not listed: [38] | [44] | [48] | [50]
> 100 µM: all other assays above
